Consider two compounds from patent publication US20220133753A1, “COMPOSITIONS AND METHODS USEFUL FOR TREATING DISEASES CHARACTERIZED BY INSUFFICIENT PANTOTHENATE KINASE ACTIVITY” (Comet Therapeutics, Inc., priority 2016, published 2022).

Data set [1] is described as follows: Stability of CoA in PBS, medium and fetal calf serum by HPLC. The conditions noted are these: formed from CoA in serum, time course of 6 hours.
Experimental: HPLC sample preparation protocol for total CoA and 4′-phosphopantetheine measurement: Samples were briefly washed with ice-cold PBS solution. Samples were sonicated thoroughly in 100 μl ice-cold PBS and centrifuged for 10-15 min at 4° C. to collect supernatant. Tris(2-carboxyethyl)phosphine hydrochloride (Sigma) (50 mM; 10 ul) was added to 50 μl sample supernatant and were incubated at room temperature for 15 min after vortex-mixing. Saturated ammonium sulfate solution or Millipore 3KD centrifugal filter units were used to remove proteins. The samples were centrifuged at 14,000 rpm for 15 min at 4° C. The clear supernatant (50 ul) or the filtrate was derivatized with 45 ul of ammonium 7-flurobenzo-2-oxa-1,3-doazole-4-sulfonate (SBD-F, Sigma) (1 mg/ml in borax buffer—0.1M containing 1 mM EDTA disodium, pH 9.5), and 5 ul ammonia solution (12.5% v/v, Merck Millipore) at 60° C. for 1 h. The derivatized samples were placed in a refrigerated autosampler (10° C.) in the Shimadzu HPLC system, and injected for total CoA and PPanSH analysis using optimized chromatographic separation conditions combined with fluorescence detection (described below).
Chromatography separation condition: Chromatographic analysis was performed with a Shimadzu LC-10AC liquid chromatograph, SCL-10A system controller, SIL-10AC automatic sample injector and LC-10AT solvent delivery system. Shimadzu RF-20Axs fluorescence detector was used for derivatized sample extract analysis. The fluorescence detector was set at excitation and emission wavelengths of 385 nm and 515 nm, respectively. Signal output was collected digitally with Shimadzu Labsolution software and post run analysis was performed. […] The two mobile phases consisted of A: 100 mM ammonium acetate buffer (pH 4.5) and B: acetonitrile. Flow rate was maintained at 0.8 ml/min with a slow gradient elution: 0% B till 7 min, 20% B at 20 min, 20% B at 22 min, 50% B at 23 min, maintained at 50% B till 27 min, 0% B at 28 min and 7-10 min for column re-equilibration.
The stability of CoA in PBS, serum-free medium, medium containing fetal calf (FCS) serum and in fetal calf serum was measured.
A further data set relates to HEK293 cells. In words: HoPan treatment of mammalian HEK293 cells in combination with CoA or 4′-phosphopantetheine. Type of data set: cell-based, human. The conditions noted are these: HoPan treated HEK293 cells, compound added to the medium. As to the method:
HoPan treatment of mammalian HEK293 Cells in combination with CoA and 4′-phosphopantetheine treatment: HEK293 cells were maintained in dMEM (Invitrogen) supplemented with 10% fetal calf serum (Gibco) and antibiotics (penicillin/streptomycin, Invitrogen). For HoPan treatment, cells were cultured in custom made dMEM without vitamin B5 (Thermo Scientific) supplemented with dialyzed FCS (Thermo Scientific). CoA or PPanSH was added to HEK293 cells for the final concentration of 25 uM, either in the presence or absence of HoPan (0.5 mM) for 4 days, followed by analysis for phenotype and rescue efficiency of CoA and PPanSH.
Western blot analysis and Antibodies: For Western blot analysis, cells were collected and washed with phosphate buffer saline (PBS), followed by centrifugation. The cells were lysed and sonicated in 1X Laemmli Sample Buffer and boiled for 5 min with 5% β-mercaptoethanol (Sigma). Protein content was determined using DC protein assay (BioRad). Equal amounts of protein were loaded on a 10 or 12.5% SDS-PAGE gel, transferred onto PVDF membranes and blocked with 5% milk in PBS/0.1% Tween, followed by overnight incubation with primary antibodies. The primary antibodies used were: rabbit-anti dPANK/fbl, 1:4000 Eurogentec custom made as described previously5, mouse anti-tubulin (Sigma Aldrich Cat no: T5168, 1:5000), anti-acetyl-Histone3 (Active Motif Cat no: 39139, 1:2000), anti GAPDH (Fitzgerald Cat no: 10R-G109a, 1:10000), rabbit anti COASY (Abcam Cat no: AB129012, 1:1000). Appropriate HRP-conjugated secondary antibodies (Amersham) were used and detection was performed using enhanced chemi-luminescence (Pierce cat nog: 32106) and Amersham hyperfilm (GE Healthcare). Band intensities were quantified with Image-studio software.

A further data set has as its system Drosophila S2 cells. In words: HoPan treatment of Drosophila S2 cells in combination with CoA or 4′-phosphopantetheine. Type of data set: cell-based. The settings on record: HoPan treated S2 cells. As to the method: HoPan treatment of Drosophila S2 Cell in combination with CoA or 4′-phosphopantetheine treatment: Drosophila Schneider's S2 cells were maintained at standard conditions as explained above. Cells in the exponential phase of growth were used for all the experiments. Different indicated concentrations of CoA or 4′-phosphopantetheine (deuterium labelled PPanSH(D4) or unlabeled PPanSH) were added to S2 cells either in the presence or absence of 0.5 mM HoPan (Zhou Fang Pharm Chemical, China) for 48 h. Similarly, Drosophila S2 cells were treated with different concentrations of PPanSH(D4) at either 25° C. or 4° C. and cells were then harvested at various time points to access transport of PPanSH(D4). Stable isotope labelled PPanSH containing 4 deuterium atoms was purchased from Syncom (Groningen, The Netherlands) as a sodium salt (chemical structure is provided in FIG. 13A). As a read out cell count, intracellular total CoA and PPanSH levels (both labelled and unlabeled levels wherever appropriate) and histone acetylation levels were analyzed as explained below.
(§1) Drosophila S2 Cell Immunofluorescence Staining: For immunofluorescence Drosophila S2 cells were seeded on Poly-L-Lysine coated (Sigma-Aldrich) glass microscope slides and allowed to settle for 45 min. Cells were fixed with 3.7% formaldehyde (Sigma Aldrich) for 20 min, washed briefly with PBS+0.1% Triton-X-100 (Sigma Aldrich) and permeabilized with PBS+0.2% Triton-X-100 for 20 min. The slides were incubated in primary antibody (rabbit anti-AcLys, Cell Signaling Cat No: 9441, 1:500) to visualize histone acetylation levels in PBS+0.1% Triton-X-100 overnight and after an additional washing step in PBS+0.1% Triton-X-100 they were incubated in secondary goat anti-rabbit-Alexa488 antibody (Molecular Probes) for two hours at room temperature (RT). F-actin was detected with Rhodamin-Phalloidin (20 U/ml)(Invitrogen) and DNA by staining with DAPI (0.2 ug/ml) (Thermo Scientific). Finally the samples were mounted in 80% glycerol and analyzed using a Leica fluorescence microscope with Leica software. Adobe Photoshop and Illustrator (Adobe Systems Incorporated, San Jose, Calif., USA) were used for image assembly.

The subject of data set [2] is dPANK/fbl RNAi treated Drosophila S2 cells. Briefly: dPANK/fbl RNA interference in Drosophila S2 cells, rescue by CoA or 4′-phosphopantetheine. Type of data set: cell-based. The settings on record: compound added to the medium; for histone (protein) acetylation of dPANK/fbl RNAi treated S2 cells: immunofluorescence. As to the method: Drosophila S2 Cell Culture, RNA Interference, and CoA and 4′-phosphopantetheine treatment: Drosophila Schneider's S2 cells were maintained at 25° C. in Schneider's Drosophila medium (Invitrogen) supplemented with 10% heat inactivated fetal calf serum (Gibco) and antibiotics (penicillin/streptomycin, Invitrogen) under laboratory conditions. Synthesis of RNAi constructs and RNA interference (dsRNA) treatment was carried out as described previously (Siudeja K et al, EMBO Mol Med 3, 755-766 (2011)). Non-relevant (human gene; hMAZ) dsRNA was used as control. The cells were incubated for 4 days to induce an efficient knock-down. Cells were then subcultured, with or without CoA (Sigma-Aldrich, Cat. No: C4780—which is used for all the experiments wherever stated below) or 4′-phosphopantetheine (PPanSH) at different concentrations and were maintained for additional 3 days until analysis for rescue efficiency of the compounds was performed. The stock solutions of compounds were made in sterile water and stored in −20° C. until use.
as §1

Data set [3] relates to CG34404 down-regulated drosophila. The class given is in vivo. An excerpt: The drosophila gene CG34404 is considered to be a good ortholog of both MCCC1 and MCCC2, as determined by Fly DIOPT (DRSC Integrative Ortholog Prediction Tool). RNAi approaches are an established method of modelling various diseases, and the KK stock library at the Vienna Drosophila Resource Centre (VDRC) contains a knock-down strain for CG34404 (VDRC ID 103335). Down-regulation of CG34404 by RNAi, causes developmental delay.
Five virgin females from UAS-KK 103335 (RNAi knock-down of CG34404) and ten virgin males from Act5C-GAL4 (heterozygous RNAi expression driver line with CyO balancer) were crossed, and allowed to lay for a period of 24 h in vials containing drosophila media with and without S-acetyl-4′-phosphopantetheine. Rescue potential was assessed by the number of eclosed male mutant or control flies every 6 h, as a percentage of total eclosed flies of each genotype, expressed as the AAUC (calculated by trapezium rule) of the cumulative eclosion relative to the control strain, as shown in FIG. 22A. Further, the region of relative AUCs are plotted in FIG. 22B under treatment conditions.

In data set [4] the test system is primary human fibroblasts from healthy controls, MCAD deficiency and PA deficiency patients. Briefly: Mitochondrial stress test (Seahorse), basal OCR of primary fibroblasts. The settings on record: 24 h treatment. The class given is cell-based. The source says:
A study was thus performed to test the ability of S-acetyl-(S)-4′-phosphopantetheine to facilitate increased basal oxidative respiration in primary fibroblast cultures from patients diagnosed with MCAD deficiency and PA deficiency. Impaired metabolism were observed through functional measurements of respiration using a Seahorse XF Analyzer, where oxygen consumption rate (OCR) reflects oxidative respiration.
Patient derived cell lines were subject to a mitochondrial stress test according to standard protocol with a cell seeding density of 30 k cells/well (n=2) in glucose free media. After incubation with various concentrations of S-acetyl-4′-phosphopantetheine or vehicle for 24 h, rescue potential was assessed by increase in basal OCR (average of six readings between 30-70 min), relative to control: basal OCR from vehicle treatment was set to 1.0. […] Experiment was performed in two replicates: systematically outlying values caused by seeding errors, port failures, or values within background were excluded from analysis.

In data set [5] the test system is MCAD patient fibroblast cell lines. Briefly: Mitochondrial stress test (Seahorse), reserve capacity of MCAD patient fibroblasts. The conditions noted are these: MCAD fibroblasts, relative to vehicle treated control. Type of data set: cell-based, human. An excerpt:
Medium-chain acyl-CoA dehydrogenase (MCAD) deficiency is a condition in which the body's capacity to break down fats with medium chain lengths is impaired, caused by mutations in the ACADM gene, which can lead to hypoglycaemia, and liver dysfunction. Left untreated, it can lead to seizures, coma and other serious health problems, with acute symptoms often preceded by extended periods of fasting or an infection with vomiting. Impaired metabolism were observed through functional measurements of respiration using a Seahorse XF Analyzer, where oxygen consumption rate (OCR) reflects oxidative respiration.
A study was performed to test the Rescue potential of S-acetyl-4′-phosphopantetheine in primary patient fibroblast model of MCAD deficiency. MCAD patient fibroblast cell lines (genotyped as containing homozygous K304E mutations in ACADM) were subject to a mitochondrial stress test according to standard protocol with a cell seeding density of 30 k cells/well (n=2). Rescue potential was assessed by increase in reserve capacity: defined as the difference between basal and maximal OCR, controlled by subtracting values for non-mitochondiral respiration (after rotenone treatment). The study was performed in two replicates.

Data set [6] concerns RNAi knock-down of CG7461 drosophila. Briefly: Drosophila model of VLCAD deficiency, survival in starvation. Type of data set: in vivo. The conditions noted are these: 5 mM, fed for 24 h. An excerpt: The drosophila gene CG7461 is considered to be a good ortholog of ACADVL, as determined by Fly DIOPT (DRSC Integrative Ortholog Prediction Tool). RNAi approaches are an established method of modelling various diseases, and the GD stock library at the Vienna Drosophila Resource Centre (VDRC) contains a knock-down strain for CG7461 (VDRC ID 28028). Down-regulation of CG7461 by RNAi, results in reduced viability when metabolically challenged with starvation.
Five virgin females from Act5C-GAL4 (RNAi expression driver line) and ten virgin males from UAS-GD 28028 (RNAi knock-down of CG7461) were crossed, to generate mutant progeny. In a similar manner, control flies were generated for the RNAi driver line (Gal4 control: Act5C-GAL4×GD 60000) and the upstream activating sequence (UAS control: UAS-GD 28028×Iso 31). From their offspring, 3-day old adult flies were allowed to feed for 24 h on glucose with and without 5 mM (S)-acetyl-4′-phosphopantetheine, then incubated on 2% agar medium without media. Dead flies were counted every 6 hours (up 90 hours) to obtain % survival over time. Rescue potential was assessed by the ability to survive in starvation conditions, expressed as the area under the curve (calculated by trapezium rule) of the cumulative frequency, relative to each control strain.

In the case of `CC(C)(COP(=O)(O)O)[C@@H](O)C(=O)NCCC(=O)NCCS` [4′-phosphopantetheine], the “stability of 4′-phosphopantetheine in serum” value in data set [1] was “stable”. For the same compound, in the data set with HEK293 cells, the “rescue of HoPan-induced impaired histone acetylation” value is “rescued” and the “rescue of HoPan-induced reduction in cell count” value was “rescued”. In addition, in the data set on HEK293 cells (HPLC), the “intracellular CoA level” value is listed as “rescued”. In the data set with Drosophila S2 cells (compound added to the medium), the “rescue of HoPan-induced decrease in cell count” value is on record as “rescued” and the “rescue of HoPan-induced histone acetylation defect” value is “rescued the histone acetylation defect”. Moreover, the “rescue of HoPan-induced histone acetylation defect” value in the data set with Drosophila S2 cells (compound added to the medium, listed as PpanSH) is “rescues acetylation defects”. Further, the “intracellular levels of 4′-phosphopantetheine” value in the data set with Drosophila S2 cells (external supplementation, HPLC) is “significantly increased”. Besides, in data set [2], the “cell count of dPANK/fbl RNAi treated S2 cells” value is given as “rescued” and the “histone (protein) acetylation of dPANK/fbl RNAi treated S2 cells” value is “rescued the histone acetylation defect”. Besides, in data set [2] (listed as PpanSH), the “histone (protein) acetylation of dPANK/fbl RNAi treated S2 cells” value is reported as “rescues acetylation defects”.

In the case of S-acetyl-4′-phosphopantetheine, the “reduction of the observed developmental delay” value in data set [3] (2 mM in drosophila media) is listed as 27 cumulative fly days. Further, in data set [3] (in vivo), the toxicity in drosophila entry is listed as “some toxicity”. In addition, the “effect on basal OCR in patient fibroblasts compared with healthy controls” value in data set [4] (MCAD and PA patient fibroblasts) is “observed more strongly”. Besides, the “basal OCR levels” value in data set [4] (primary fibroblasts, relative to vehicle controls) is listed as “consistently elevated”. Besides, the “spare respiratory capacity (reserve capacity)” value in data set [5] is reported as “improved spare respiratory capacity”. For the same compound, the “ability to survive starvation relative to control flies (AUC of cumulative survival)” value in data set [6] is on record as “partially recovered towards control levels”; in data set [6] (listed as (S)-acetyl-4′-phosphopantetheine) it was “partially recovered”.
